Assay results from US20250283050A1, “METHOD OF CANCER TREATMENT” (priority 2021, published 2025).

Tests used:
[1] = test system: colorectal cancers (CRC) tumor cells; assay: en bloc CRC culture: tumor cell death by PI-staining and FACS; format: cell-based, human; conditions: en bloc CRC culture
Procedure: To this end, en bloc colorectal cancers (CRC) or control non-tumor colon mucosal tissues from the same patients were incubated in RPMI based media and treated with DOX for 3 days. The effects of the treatment on tumor or normal cells were then determined by PI-staining and FACS analysis.
To this end, en bloc CRC tumor or control colon mucosal tissues were treated with DOX at low non-cytotoxic dosage and then co-cultured with TAMs transfected with Hom-1 or control GFP. After 5 days of co-culturing, the effects of the treatment on the survival of tumor or control normal epithelial cells were determined by PI staining and FACS analysis.
(§1) Tumor tissue were washed with 1×PBS buffer plus antibiotics and then cut into 0.5 cm pieces. Tissues were cultured in 2 mL of RPMI 1640 medium, supplemented with 2-10% FBS (Sigma) and 1% antibiotic-antimycotic solution (Gibco) in 24-well plate (Corning). The cultures were incubated at a 37° C., 5% CO2 incubator. […] To evaluate the effect of chemotherapeutic agents, chemo-reagents at indicated concentration or PBS was used instead of the anti-PD-1 antibody. For en bloc tissue and macrophage co-culture assay, 0.25×10^6 GFP-Hom-1 or control GFP transfected autologous macrophages of the same patient were added to the en bloc tissue culture wells. After gently shaking, the plate was incubated at 37° C., 5% CO2 for 3-5 days. The en bloc tissues were then subjected to single 1 cell isolation and analysis as described.
Single cell suspensions generated from en bloc tissue culture were washed with FACS staining solution (PBS plus 2% FBS), fixed and permeabilized (Invitrogen) and then stained with Ber-EP4 antibodies for normal epithelial cells and CK7, CK19 and CK20 for cancer cells for 30 minutes on ice. After washes with FACS staining solution, cells were stained with FITC-conjugated secondary antibodies for 30 minutes on ice. The cells were then washed with FACS staining solution and fixed in 2% paraformaldehyde in PBS for 30 min or overnight. The cells were washed and resuspended in 200 μL of FACS staining solution and 5 μL of PI staining solution (eBioscience/Fisher Scientific) were added in the solution for 15 minutes. Cell viability were then analyzed with a flow cytometry.

esophageal cancer = assay: en bloc tumor culture with chemotherapeutic agent and Hom-1-TAMs: esophageal cancer; format: cell-based; conditions: agent plus Hom-1-TAMs
Procedure: (§2) Besides CRC, Hom-1-TAMs reverse immune polarity of PDAC and NSCLC TME (data not shown). The effects of Hom-1-TAM on tumoricidal effects of DOX were further explored on other tumor types, such as PDAC, NSLC, esophageal cancer and stomach cancers.
(§3) Additional chemo-reagents used in this study are listed below.
as §1

[2] = test system: non-small cell lung cancer (NSCLC); assay: en bloc tumor culture with chemotherapeutic agent and Hom-1-TAMs: NSCLC; format: cell-based; conditions: agent plus Hom-1-TAMs
Procedure: as §2, §3, §1

| SMILES | cytocidal effects on tumor cells ([1]; agent alone, dose range) | tumoricidal effects promoted by Hom-1-TAMs ([1]; agent plus Hom-1-TAMs) | tumoricidal effects promoted by Hom-1-TAMs (esophageal cancer) | tumoricidal effects promoted by Hom-1-TAMs [2] |
| --- | --- | --- | --- | --- |
| O=c1[nH]cc(F)c(=O)[nH]1 [5-FU] | dosage-dependent cytocidal effects on tumor cells | promoted |  |  |
| N.N.[Cl][Pt][Cl] [Cisplatin] |  |  | promoted | promoted |
